Measurements: patent US20230250131A1, “HYDROXYSTEROID COMPOUNDS” (Epirium Bio Inc., priority 2022, published 2023)
Several values for one entry are separate records, joined by “and”; a condition that tells them apart may be missing. Equal entries are not always repeated. Where two headings read alike, the source gives them in different places.

System: PGC-1α
Test: PGC-1α assay in differentiated C2C12 cells (ELISA-type antibody detection, absorbance at 450 nm)
Assay type: cell-based
Details: each compound tested at 0.01 nM, DMSO control as 100%; for activity at 10 pM: Mus musculus, C2C12, C2C12 myotubes
Protocol: The compounds of Table 2 were synthesized and tested in a PGC-1α assay.
Culture conditions: DMEM containing 25 mM glucose with 10% FBS supplementation; grown at 37° C. and 5% CO2.
Assay Conditions: C2C12 cells were cultured in DMEM supplemented in 10% FBS up to 80% confluence. The cells were further trypsinized and seeded into a 96 well plate at a density of 5000 cells/well (well volume—100 μL) (Day 0). Following attachment, the cells were allowed to reach 80-90% confluence in the plate (typically 48 hours post seeding) and further differentiated using DMEM+2% Horse Serum (200 μL/well). The media was changed every day or at least every alternate day for 5 days to allow myoblasts to differentiate into myotubes. On day 7 (post seeding), the cells were treated with standards and test compounds for PGC-1α assay.
PGC-1α assay: For the detection of PGC-1α, the cells were incubated with […] primary antibody (Merck, WH10010891M3) in PBS-T containing 5% BSA at 4° C. overnight. The cells were then washed three times with PBS-T for 5 minutes and incubated with 1:1000 dilution secondary antibody (Anti-rabbit IgG, HRP-linked Antibody, Cell Signaling) in PBS-T with […] for 1 hour at RT. Cells were washed three times with PBS-T for 5 minutes The cells were incubated with 100 μl TMB substrate solution for 30 minutes and the reaction was stopped with 100 μl of 2N H2SO4. Then the plate was read at 450 nm using ELISA plate reader and absorbance recorded. […] was calculated using DMSO control as 100%. (For plate optical density calculations, a background correction was taken at 540 nm). Each compound was tested at a concentration of 0.01 nM.

[1] = average over experiments, read-out: Single point PGC1-Alpha Assay: Average Activity (%)
[2] = individual experiments (Exp. 1-3), read-out: Single point PGC1-Alpha Assay: Activity (%)

Question: How did the activity at 10 pM [1] turn out when `CCN1C(=O)CC[C@@]2(C)C1=CCC1C2[C@@H](O)C[C@@]2(C)C1CC[C@@H]2C(C)=O` (some centres unmarked) was run?
Answer: 116%

Question: What about the activity at 10 pM [2] of the same compound?
Answer: 116%

Question: How did the activity at 10 pM [1] turn out when `CCN1C(=O)CC[C@@]2(C)C1=CCC1C2[C@@H](O)C[C@@]2(C)C1CC[C@@H]2C(C)O` (some centres unmarked) was run?
Answer: 94%

Question: And the activity at 10 pM [2]?
Answer: 94%

Question: How did the activity at 10 pM [1] turn out when `CCCN1C(=O)CC[C@@]2(C)C1=CCC1C2[C@@H](O)C[C@@]2(C)C1CC[C@@H]2C(C)=O` (some centres unmarked) was run?
Answer: 109%

Question: What about the activity at 10 pM [2] of the same compound?
Answer: 109%

Question: For `CCN1C(=O)CC[C@@]2(C)C1=CCC1C3CCC(C4(C)OCCO4)[C@@]3(C)C[C@](C)(O)C12` (some centres unmarked), which activity at 10 pM [1] is on record?
Answer: 119%

Question: What about the activity at 10 pM [2] of the same compound?
Answer: 119%

Question: With `CCN1C(=O)CC[C@@]2(C)C1=CCC1C2[C@@](C)(O)C[C@@]2(C)C1CC[C@@H]2C(C)=O` (some centres unmarked) as the compound, how does the activity at 10 pM [1] read?
Answer: 118%

Question: What about the activity at 10 pM [2] of the same compound?
Answer: 118%

Question: Which activity at 10 pM [1] does the source give for `CCN1C(=O)CC[C@@]2(C)C1=CCC1C2[C@@](C)(O)C[C@@]2(C)C1CC[C@@H]2C(C)(C)O` (some centres unmarked) here?
Answer: 126%

Question: And the activity at 10 pM [2]?
Answer: 126%

Question: What does the source list for `[2H][C@]1(O)C[C@@]2(C)C(CC[C@@H]2C(C)=O)C2CC=C3N(CC)C(=O)CC[C@]3(C)C21` (some centres unmarked)?
Answer: Single point PGC1-Alpha Assay: Activity (%) (C2C12 myotubes, individual experiments (Exp. 1-3), 10 pM): 137% and 112% and 131%; activity at 10 pM [1]: 127%
